For 16 compounds, TGI and GI50 results are on record in PubChem BioAssay (NCI).

SMILES strings stand for the structures.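 Tested at 5 concentrations; 48 h exposure; 96-well plates; endpoints linearly interpolated, else capped at highest concentration. GI50 = concentration required for 50% inhibition of growth. TGI: concentration producing complete growth inhibition.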

Test systems include SK-MEL-5 melanoma; TK-10 renal; HOP-92 NSCLC; U251 CNS; A549 NSCLC; OVCAR-8 ovarian; UO-31 renal; PC-3 prostate; BT-549 breast; T-47D breast.
Common to all, as to experiment: NCI anticancer screen, dose series, 48 h

`C[N+](C)(C)CC(=O)N/N=C(\C(=O)Nc1ccc(Cl)cc1)C1C(=O)N(c2ccccc2)N=C1N` (centres undefined): the TGI in the test with SK-MEL-5 melanoma, in the test with TK-10 renal, in the test with HOP-92 NSCLC, with U251 CNS, in the test on A549 NSCLC and in the test on OVCAR-8 ovarian was greater than 100 µM each time. Moreover, the TGI in the test on UO-31 renal was greater than 100 µM.
For the compound `CC(C)Oc1c(O)c2c3c(oc(=O)n3C=CC2c2ccccc2F)c1OC(C)C` (centres undefined), the TGI with PC-3 prostate is 40.1 µM; with SK-MEL-5 melanoma, 34.2 µM; in the test with TK-10 renal it was greater than 100 µM; in the test with HOP-92 NSCLC, greater than 100 µM; with U251 CNS, greater than 100 µM; in the test on A549 NSCLC, greater than 100 µM. The TGI with OVCAR-8 ovarian and with UO-31 renal was greater than 100 µM each time.
For `COCN1C(=O)[C@@H]2C[C@@H](OC/C=C/CBr)CN2C(=O)c2ccccc21`, the TGI is 51.8 µM in the test with PC-3 prostate; 34.8 µM with SK-MEL-5 melanoma; greater than 100 µM with BT-549 breast; 49.7 µM in the test with TK-10 renal; 74.8 µM with U251 CNS; 35.5 µM in the test with A549 NSCLC. The results for the TGI in the test on OVCAR-8 ovarian, in the test on UO-31 renal and with T-47D breast were 34 µM, 40.5 µM and 59 µM, respectively.
For the compound `CC(=O)NC(Cc1ccccc1)C(=S)N1CCCC1` (centres undefined), the TGI in the test on SK-MEL-5 melanoma, in the test on TK-10 renal, with HOP-92 NSCLC, in the test on U251 CNS, with A549 NSCLC and in the test on OVCAR-8 ovarian was greater than 100 µM in each case. For the same compound, the TGI in the test on UO-31 renal was greater than 100 µM.
In the case of `Nc1nc(NC(=O)C2=NS(=O)(=O)c3cc(S(N)(=O)=O)c(Cl)cc3N2)n[nH]1`, the TGI in the test on SK-MEL-5 melanoma, with TK-10 renal, in the test on HOP-92 NSCLC, with U251 CNS, with A549 NSCLC and in the test with UO-31 renal was greater than 100 µM throughout.
Consider `CC1=C2CC3=C(C)C(=O)O[C@H]3C[C@@H](C)[C@@H]2CC1`, for which the TGI in the test on PC-3 prostate, with SK-MEL-5 melanoma, in the test with BT-549 breast, in the test on TK-10 renal, with HOP-92 NSCLC and in the test with U251 CNS was greater than 100 µM throughout. Besides, the TGI with OVCAR-8 ovarian and with UO-31 renal was greater than 100 µM throughout.
In the case of `COc1cc(/C=C/C(=O)C(C)(C)C)cc(OC)c1OC`, the TGI in the test with SK-MEL-5 melanoma, in the test with TK-10 renal, with HOP-92 NSCLC, with U251 CNS, with A549 NSCLC and with OVCAR-8 ovarian was greater than 100 µM throughout. Further, in the test on UO-31 renal, the TGI was greater than 100 µM.
On to `COC[C@@H](N=Cc1ccc(OC)cc1)C(C)C`, for which the TGI in the test with PC-3 prostate, in the test on SK-MEL-5 melanoma, in the test with BT-549 breast, in the test with TK-10 renal, in the test with U251 CNS and in the test with A549 NSCLC was greater than 100 µM each time. In addition, the TGI in the test with OVCAR-8 ovarian, in the test on UO-31 renal and in the test on T-47D breast was greater than 100 µM each time.
For `CC1=CC(=O)C[C@]2(C)[C@@H](O)CC(C(C)CO)C[C@@H]12` (some centres undefined), the TGI in the test with SK-MEL-5 melanoma, in the test on BT-549 breast, with TK-10 renal, in the test on HOP-92 NSCLC, in the test on U251 CNS and with A549 NSCLC was greater than 100 µM each time. Besides, the TGI in the test on OVCAR-8 ovarian, with UO-31 renal and with T-47D breast was greater than 100 µM throughout.
Regarding `CC(C)CCC[C@@H](C)[C@H]1CC[C@H]2[C@@H]3CC=C4CC(OCCCCN(O)CCCSC5OC(CO)C(O)C(O)C5O)CC[C@]4(C)[C@H]3CC[C@]12C` (some centres undefined), the TGI is greater than 100 µM in the test with SK-MEL-5 melanoma; greater than 100 µM in the test on TK-10 renal; greater than 100 µM with HOP-92 NSCLC; 75.1 µM in the test on U251 CNS; greater than 100 µM in the test with A549 NSCLC; greater than 100 µM in the test on OVCAR-8 ovarian. Besides, in the test on UO-31 renal, the TGI was greater than 100 µM.
For `O=C(CCc1nnc2s/c(=C\c3ccc(Cl)cc3Cl)c(=O)n12)Nc1cc(Cl)c(Cl)cc1Cl`, the GI50 in the test with SK-MEL-5 melanoma, in the test with A549 NSCLC, in the test with OVCAR-8 ovarian and with UO-31 renal was greater than 100 µM each time. Moreover, the TGI with SK-MEL-5 melanoma, in the test on TK-10 renal, with HOP-92 NSCLC, in the test on U251 CNS, in the test with A549 NSCLC and in the test on OVCAR-8 ovarian was greater than 100 µM in each case. The same compound gave a TGI with UO-31 renal greater than 100 µM.
On to `N#C/C(=C/NC(=S)Nc1ccc(S(N)(=O)=O)cc1)C(N)=O`, for which the TGI in the test with PC-3 prostate, in the test with SK-MEL-5 melanoma, in the test on BT-549 breast, with TK-10 renal, in the test on HOP-92 NSCLC and in the test on U251 CNS was greater than 100 µM in each case. In addition, the TGI in the test on A549 NSCLC and with OVCAR-8 ovarian was greater than 100 µM each time.
Take `COc1cc2c(oc(=O)c3c4oc([Si](C)(C)C)cc4cc(OC)c23)c2cccc(O)c12`: the TGI in the test with SK-MEL-5 melanoma, with TK-10 renal, with HOP-92 NSCLC, in the test on U251 CNS, in the test with A549 NSCLC and in the test on OVCAR-8 ovarian was greater than 100 µM in each case. The compound also registered a TGI in the test with UO-31 renal greater than 100 µM.
For the compound `O=C(N/N=C/c1cc(-c2ccccc2Cl)c(-c2ccccc2Cl)o1)c1ccncc1`, the TGI in the test with TK-10 renal, with HOP-92 NSCLC and in the test on A549 NSCLC was greater than 100 µM each time.
Take `Clc1ccc(CCn2ccc3ccccc32)c(Cl)c1`: the TGI in the test with PC-3 prostate, in the test on SK-MEL-5 melanoma, in the test on BT-549 breast, in the test with TK-10 renal, in the test with HOP-92 NSCLC and in the test with U251 CNS was greater than 100 µM throughout. The TGI in the test with A549 NSCLC, with OVCAR-8 ovarian and with UO-31 renal was greater than 100 µM throughout.
On to `O=S(=O)(CC#CCS(=O)(=O)c1ccccc1)c1ccccc1`, for which the TGI in the test with PC-3 prostate amounted to 22.3 µM; with SK-MEL-5 melanoma, 10.4 µM; in the test with BT-549 breast, 11.8 µM; in the test on TK-10 renal, 7.61 µM; in the test on HOP-92 NSCLC, 3.39 µM; in the test on U251 CNS it was 24.5 µM. Besides, the TGI in the test on A549 NSCLC turned out to be 37.5 µM; with OVCAR-8 ovarian, 5.16 µM; in the test with UO-31 renal, 2.65 µM.
